Here are results for 3 compounds from US20070292465A1, “Eutectic biocide compositions and formulations” (Clariant International, Ltd., priority 2006, published 2007).

For series [1] the following is noted: 25° C., for reference purposes; cited from earlier work.
Series [2] is described as follows: Brookfield viscosity, SC4-18 spindle, 100 rpm. It counts as physicochemical. The procedure:
The procedure used a Brookfield viscometer.
The apparatus used was a Brookfield viscometer, Programmable DV-II+Viscometer and a SC4-18 spindle.
The samples were tested at 100 rpm and at a range of temperatures, as shown in Table 4—Viscosity Measurement Results below.
All measurements were made in centipoise. For reference purposes, the viscosity of water, at 25° C. is 0.89 centipoise, and the viscosity of ethylene glycol at 25° C. is about 16 centipoise.

A short description of series [3]: Physical properties at freezing temperatures and on thawing (Example 3). It is filed as physicochemical. As to the method: The following samples were tested to observe their physical properties at freezing temperatures:
After blending, such as by the method above, for example, all samples were allowed to cool to room temperature (20° C.). All samples stayed liquid at room temperature, except for blend 5.
All samples were placed in a freezer overnight ([…]).
All samples were placed back in the same freezer at the same temperature for an additional 2 days. In the BCP sample, there was-no change.
All samples were left at room temperature to thaw overnight.

Regarding `OCCO` [ethylene glycol], the “viscosity (reference)” value in series [1] is “about 16 centipoise”.

As for `Oc1ccc(Cl)cc1Cc1ccccc1` [BCP, o-benzyl p-chlorophenol], the results for the viscosity result in series [2] (10 ° C.) and in series [2] (40 ° C.) were “Crystalline” and 29.4 centipoise, respectively. In addition, the “physical state after overnight freezing” value in series [3] (freezer overnight (23° C.)) is listed as “frozen solid”. For the same compound, in series [3] (same freezer, same temperature, additional 2 days), the “physical state after extended freezing” value was “no change”.

With `O` [water], the “viscosity (reference)” value in series [1] is 0.89 centipoise.
